This data set in a line: Human HepG2 cell viability assay in 384 well format. It counts as toxicity, cell-based. Details: dose 125 nL, time 70.5 hour; concentration not given beside the values. The settings on record: HepG2 cells, read-out: Inhibition.
For the molecule `Cc1ccc(F)c(NC(=O)NCCCn2nc3ccccn3c2=O)c1`, the cytotoxicity at 70.5 h was -3.3%.

For the molecule `CCc1nccn1C1CCCN(C(=O)c2ccoc2C)C1` (centres undefined), the cytotoxicity at 70.5 h came out at 1.06%.

With `Cc1ccc(CC(=O)N2CCCC2Cn2nc(C)cc2C)cn1` (centres undefined), the cytotoxicity at 70.5 h is -11.5%.

On to `Cc1ccc(CC(=O)N2CCN(c3nccs3)CC2)s1`, for which the cytotoxicity at 70.5 h amounted to 14.7%.

For `Cc1cc(C(=O)NC(COCC(C)C)c2ccco2)no1` (centres undefined), the cytotoxicity at 70.5 h is -1.3%.

As for `c1ncn(CC2CCCN(Cc3csc(-c4ccsc4)n3)C2)n1` (centres undefined), the cytotoxicity at 70.5 h amounted to 2.18%.

For `CC(Cn1cccn1)NCc1csc(COc2ccc(F)cc2)n1` (centres undefined), the cytotoxicity at 70.5 h is -1.54%.

Consider `CCCc1nc(CNC(C)Cn2cccn2)cs1` (centres undefined), for which the cytotoxicity at 70.5 h is 3.08%.

Take `c1ccc2oc(CCCN3CCCC3c3noc(C4CC4)n3)nc2c1` (centres undefined): the cytotoxicity at 70.5 h came out at 17.9%.

On to `CC(C)C1CCCN1CCCc1nc(-c2cccs2)no1` (centres undefined), for which the cytotoxicity at 70.5 h was determined as 2.81%.

For `CC(O)CN1CCC(CNCc2cccc(Cl)c2)CC1` (centres undefined), the cytotoxicity at 70.5 h came out at 12.3%.

Regarding `COc1ccc(C(=O)N2CCCCC2c2nccs2)c(OC)c1` (centres undefined), the cytotoxicity at 70.5 h was -6.39%.

Turning to `Cc1noc(C)c1CN1CCCC(c2noc(C3CC3)n2)C1` (centres undefined), the cytotoxicity at 70.5 h is -7.9%.

Consider `CCCc1nc(CN2CCCC(c3noc(C4CC4)n3)C2)no1` (centres undefined), for which the cytotoxicity at 70.5 h was -4.77%.

On to `COc1ccc(CCCNCc2c(C)nn(C)c2N(C)C)cc1OC`, for which the cytotoxicity at 70.5 h turned out to be 4.5%.

`Cc1ccc(S(=O)(=O)NC(=O)CCC2CCCO2)cc1` (centres undefined): the cytotoxicity at 70.5 h worked out at 0.693%.

As to `O=C(CN1CCCC1c1cccs1)N1CCc2sccc2C1` (centres undefined), the cytotoxicity at 70.5 h was -0.311%.

With `COc1cccc(S(=O)(=O)NC(=O)CCC2CCCO2)c1` (centres undefined), the cytotoxicity at 70.5 h was determined as 1.07%.

For `COc1cc(CNCc2c(C)nn(C)c2N(C)C)ccc1OCCO`, the cytotoxicity at 70.5 h is 5.42%.

Consider `O=C(NCCOC1CCCC1)c1ccc(-c2ccco2)[nH]c1=O`, for which the cytotoxicity at 70.5 h is -2.19%.

Turning to `O=C1COc2c(cccc2C(=O)N2CCCC(n3cccn3)C2)N1` (centres undefined), the cytotoxicity at 70.5 h came out at 23.6%.

As to `CC(O)CN1CCC(CNCc2ccc(C(N)=O)cc2)CC1` (centres undefined), the cytotoxicity at 70.5 h was -0.474%.

For `Cc1ccc(CC(=O)N2CCN(C3CCOC3=O)CC2)cc1` (centres undefined), the cytotoxicity at 70.5 h is -1.49%.

Turning to `c1csc(-c2noc(CN3CCCC3Cn3cccn3)n2)c1` (centres undefined), the cytotoxicity at 70.5 h is -2.35%.

As to `Cn1nc2c(cc1=O)CN(Cc1coc(-c3ccc(F)cc3)n1)CC2`, the cytotoxicity at 70.5 h is 14.8%.

On to `Cn1nc2c(cc1=O)CN(Cc1coc(-c3cccc(F)c3)n1)CC2`, for which the cytotoxicity at 70.5 h is -2.83%.

Consider `COc1ccc(COCC(=O)N2CCCC(n3cncn3)C2)cc1` (centres undefined), for which the cytotoxicity at 70.5 h came to 19.2%.

Consider `c1ccc(OCCN2CCCCC2Cn2cncn2)cc1` (centres undefined), for which the cytotoxicity at 70.5 h was found to be 23.7%.

Turning to `O=C(NCc1nncn1-c1ccccc1)C1CCCC1`, the cytotoxicity at 70.5 h is -4.48%.

Turning to `O=C(NCc1nncn1-c1ccccc1)C1CCCCC1`, the cytotoxicity at 70.5 h is -0.117%.

For `COc1ccc(CNC(=O)Nc2cccnc2N2CCCC2)cc1`, the cytotoxicity at 70.5 h worked out at 20.6%.

Take `CC(NC(=O)CCCOc1ccc(F)cc1)c1nnc2n1CCC2` (centres undefined): the cytotoxicity at 70.5 h was -1.76%.

`NC(=O)N1CCC(C(=O)NCc2nncn2-c2ccccc2)CC1`: the cytotoxicity at 70.5 h is 1.01%.

Consider `Cc1cnn(CC2CN(Cc3nc(-c4ccco4)no3)CCO2)c1` (centres undefined), for which the cytotoxicity at 70.5 h is -0.209%.

Take `O=C(NCC(=O)N1CCCC(n2cncn2)C1)OCc1ccccc1` (centres undefined): the cytotoxicity at 70.5 h was -0.265%.

As for `Cc1ccc(CCC(=O)N2CCCC(c3cc(C(N)=O)[nH]n3)C2)cc1` (centres undefined), the cytotoxicity at 70.5 h is 0.115%.

In the case of `COc1ccccc1C1(C(=O)N2CCCC(c3cc(C)[nH]n3)C2)CC1` (centres undefined), the cytotoxicity at 70.5 h is -0.122%.

Consider `CCOCC(O)CN1CCN(C(=O)C2CCCC2)CC1` (centres undefined), for which the cytotoxicity at 70.5 h is -0.535%.

In the case of `Cc1ccc(N2CCCC(NCc3cccs3)C2)nn1` (centres undefined), the cytotoxicity at 70.5 h was -1.01%.

As to `Cc1ccc(N2CCCC(NCc3ccc4c(c3)OCCO4)C2)nn1` (centres undefined), the cytotoxicity at 70.5 h stood at 1.38%.

In the case of `c1cnn(CC2CN(Cc3nc(-c4ccoc4)no3)CCO2)c1` (centres undefined), the cytotoxicity at 70.5 h was found to be 24.3%.

Regarding `Cc1ccc(N2CCCC(NCC3=Cc4ccccc4OC3)C2)nn1` (centres undefined), the cytotoxicity at 70.5 h was -5.84%.

On to `Cc1cnn(CC2CN(Cc3nc(-c4ccccn4)no3)CCO2)c1` (centres undefined), for which the cytotoxicity at 70.5 h is 2.23%.

Take `Cc1nn(C)c(Cl)c1C1CCCN1CC(=O)Nc1cccnc1` (centres undefined): the cytotoxicity at 70.5 h was -6.29%.

On to `COc1cccc(COCC(=O)N2CCCC(n3cncn3)C2)c1` (centres undefined), for which the cytotoxicity at 70.5 h was -1.04%.

Regarding `CCOCC(O)CN1CCN(C(=O)C2CCCCC2)CC1` (centres undefined), the cytotoxicity at 70.5 h is -0.878%.

Consider `Cc1nc(C)n(C2CCCN(C(=O)c3ncoc3C(C)C)C2)n1` (centres undefined), for which the cytotoxicity at 70.5 h is -11.1%.

Consider `CC(C)Oc1ncccc1CNC(=O)c1cnccn1`, for which the cytotoxicity at 70.5 h is -5.94%.

Regarding `CS(=O)(=O)NCC1CCCN(C(=O)c2ccco2)C1` (centres undefined), the cytotoxicity at 70.5 h was -6.79%.

Regarding `O=C(CCNc1ncccn1)N1CCCC(n2ccnc2)C1` (centres undefined), the cytotoxicity at 70.5 h is -2.71%.

Consider `CN(C)S(=O)(=O)c1ccc(OCCNCCn2cccn2)cc1`, for which the cytotoxicity at 70.5 h was 33.7%.

In the case of `Cc1cc(C)n(C2CN(CC(=O)NC3CCOCC3)C2)n1`, the cytotoxicity at 70.5 h is -0.827%.

For `CCCc1n[nH]c(C2CN(CCCS(C)(=O)=O)CCO2)n1` (centres undefined), the cytotoxicity at 70.5 h was -4.54%.

Turning to `COc1c(CNCc2ccnc(N3CCCC3)c2)c(C)nn1C`, the cytotoxicity at 70.5 h is -0.752%.

With `O=C(CCc1cscn1)N1CCCC(n2ccnc2)C1` (centres undefined), the cytotoxicity at 70.5 h turned out to be 2.29%.

Consider `Cc1cccc(-c2nc(CN(Cc3cccs3)CC3CCCO3)no2)c1` (centres undefined), for which the cytotoxicity at 70.5 h is -1.72%.

`Cc1cnn(CC(C)NCc2csc(-c3ccsc3)n2)c1` (centres undefined): the cytotoxicity at 70.5 h is -0.817%.

For `COc1cc(C(=O)N2CCC(c3n[nH]c(C4CC4)n3)CC2)ccc1C`, the cytotoxicity at 70.5 h was 36.5%.

Regarding `CC1CCN(S(=O)(=O)NCc2ccccc2Cn2cncn2)CC1`, the cytotoxicity at 70.5 h was -2.92%.

Turning to `CC(C(=O)N1CCN(c2ccccc2Cl)CC1)n1cncn1` (centres undefined), the cytotoxicity at 70.5 h is 10.3%.

Take `COc1cc(/C=C/c2ncc(C(=O)O)s2)cc(Cl)c1O`: the cytotoxicity at 70.5 h is 7.03%.

On to `CN1CCCc2cc(CNC(=O)c3ccncc3)ccc21`, for which the cytotoxicity at 70.5 h came out at 33.4%.

Consider `CC(C)Sc1ncccc1C(=O)NCc1ccc(CS(C)(=O)=O)cc1`, for which the cytotoxicity at 70.5 h worked out at 6.05%.

Take `CN1N=C(C(=O)NCc2ccc3c(c2)CCCN3C)CCC1=O`: the cytotoxicity at 70.5 h stood at 5.34%.

For `Cc1cc(C)c(CNC(=O)N2CCCC2c2ccccc2)c(=O)[nH]1` (centres undefined), the cytotoxicity at 70.5 h turned out to be 2.02%.

Consider `Cc1cc(C)c(CNC(=O)N2CCCC2c2cccn2C)c(=O)[nH]1` (centres undefined), for which the cytotoxicity at 70.5 h is 5.45%.

Take `O=C(NCCNc1cnccn1)N1CCN(Cc2cccnc2)CC1`: the cytotoxicity at 70.5 h amounted to 33.3%.

On to `O=S(=O)(NCc1ccccc1Cn1cncn1)C1CCCC1`, for which the cytotoxicity at 70.5 h came out at 2.05%.

Consider `CC(=O)N1CCN(C(=O)C(C)n2cncn2)CC1` (centres undefined), for which the cytotoxicity at 70.5 h worked out at 5.31%.

Take `Cc1cnn(C2CCCN(C(=O)c3ccnc(-n4ccnc4)c3)C2)c1` (centres undefined): the cytotoxicity at 70.5 h is -0.996%.

For `CCOCCC(=O)N1CCCN(Cc2csc(CC)n2)CC1`, the cytotoxicity at 70.5 h is -0.403%.

Take `Cc1ccc(NC2CCN(C(=O)COCC(F)(F)F)CC2)nn1`: the cytotoxicity at 70.5 h was found to be 10.1%.

For `Cc1n[nH]c(C2CN(C(=O)Cn3ccccc3=O)CCO2)n1` (centres undefined), the cytotoxicity at 70.5 h worked out at 7.95%.

With `Cn1ncc2c1CCCC2NCc1cccc(F)c1` (centres undefined), the cytotoxicity at 70.5 h is -14.3%.

For the origin of these results see ChEMBL document CHEMBL3507680, “University of Dundee, Gates Library screen for HepG2 cell viability”.
